Data set [1] has as its target T1, Alkaline phosphatase, tissue-nonspecific isozyme (Rattus norvegicus) (UniProt P08289).
T1 sequence (whole entry): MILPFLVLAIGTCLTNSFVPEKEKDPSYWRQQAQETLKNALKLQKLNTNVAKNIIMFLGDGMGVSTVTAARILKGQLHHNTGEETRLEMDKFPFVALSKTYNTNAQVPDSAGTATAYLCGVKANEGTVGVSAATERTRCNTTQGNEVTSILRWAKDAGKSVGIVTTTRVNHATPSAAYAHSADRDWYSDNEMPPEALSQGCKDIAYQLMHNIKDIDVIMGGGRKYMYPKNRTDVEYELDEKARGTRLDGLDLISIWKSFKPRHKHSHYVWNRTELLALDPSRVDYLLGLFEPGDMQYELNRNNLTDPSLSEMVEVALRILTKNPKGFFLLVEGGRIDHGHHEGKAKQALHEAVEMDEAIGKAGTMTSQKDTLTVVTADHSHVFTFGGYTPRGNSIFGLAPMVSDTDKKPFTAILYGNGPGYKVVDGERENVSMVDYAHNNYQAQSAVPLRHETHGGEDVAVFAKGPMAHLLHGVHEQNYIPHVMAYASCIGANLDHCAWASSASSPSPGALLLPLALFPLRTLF
Description: (§1) Hepatoprotective activity against alkaline phosphatase (ALP) for thioacetamide-induced toxicity in rats at 6 mg/kg dose for 7 days by ip administration. Format: functional, organism-based. Also on record: dose 6 mg/kg.

Data set [2] can be described thus: Hepatoprotective activity against glutamate oxaloacetate transaminase (GOT) for thioacetamide-induced toxicity in rats at 6 mg/kg dose for 7 days by ip administration. Format: functional.
In data set [3] the target is T2, Alanine aminotransferase 1 (Rattus norvegicus) (UniProt P25409).
T2 sequence (whole entry): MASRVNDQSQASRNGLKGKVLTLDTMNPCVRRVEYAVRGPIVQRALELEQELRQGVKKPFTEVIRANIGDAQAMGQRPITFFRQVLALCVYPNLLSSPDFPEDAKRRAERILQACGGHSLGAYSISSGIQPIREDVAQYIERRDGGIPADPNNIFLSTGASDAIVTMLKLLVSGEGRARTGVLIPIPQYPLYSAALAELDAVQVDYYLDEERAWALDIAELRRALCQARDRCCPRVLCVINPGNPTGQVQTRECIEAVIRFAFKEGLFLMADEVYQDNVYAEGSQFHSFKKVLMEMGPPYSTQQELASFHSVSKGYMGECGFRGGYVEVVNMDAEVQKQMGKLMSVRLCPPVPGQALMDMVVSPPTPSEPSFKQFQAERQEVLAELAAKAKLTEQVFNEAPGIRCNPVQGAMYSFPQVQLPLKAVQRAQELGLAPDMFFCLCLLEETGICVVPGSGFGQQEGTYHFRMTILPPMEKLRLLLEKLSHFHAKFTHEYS
The experiment in a line: (§2) Hepatoprotective activity against glutamate pyruvate transaminase (GTP) for thioacetamide-induced toxicity in rats at 6 mg/kg dose for 7 days by ip administration. Format: functional, organism-based. On the set-up: dose 6 mg/kg.

Data set [4] concerns Rattus norvegicus. Description: Hepatoprotective activity against bilirubin for thioacetamide-induced toxicity in rats at 6 mg/kg dose for 7 days by ip administration. Format: functional.
Data set [5] deals with Rattus norvegicus. Description: Effective dose administered perorally in rats in various models of liver injuries. Format: functional.
A short description of data set [6]: Lethal dose administered perorally in rats in various models of liver injuries. Format: toxicity. Conditions: rat, in vivo, po.
Data set [7] deals with Alkaline phosphatase, tissue-nonspecific isozyme (Rattus norvegicus) (UniProt P08289). The data set is described as §1. Format: functional, organism-based. On the set-up: dose 6 mg/kg. This is another data set of the same source.
The target of data set [8] is Alanine aminotransferase 1 (Rattus norvegicus) (UniProt P25409). The description is as §2. On the set-up: dose 6 mg/kg. Format: functional, organism-based. The source holds these as a separate data set.

Turning to `N#Cc1c(N)oc(-c2ccccc2)n/c1=N\N`, the Protection amounted to 12% in data set [1], 17% in data set [2] (route intraperitoneal), 19% in data set [3] and 0% in the data set with Rattus norvegicus [4] (route intraperitoneal).

On to `CCOC(=O)c1c(SC)nc(-c2ccccc2)oc1=N`, for which the Protection stood at 41% in data set [1], 33% in data set [2] (route intraperitoneal), 39% in data set [3] and 33% with Rattus norvegicus [4] (route intraperitoneal).

Consider `CCOC(=O)c1c(SC)nc(C)oc1=N`, for which the Protection came to 36% in data set [1], 26% in data set [2] (route intraperitoneal), 29% in data set [3] and 11% with Rattus norvegicus [4] (route intraperitoneal).

In the case of `CCOC(=O)c1c(SC)nc(C(F)(F)F)oc1=N`, the Protection in data set [1] was determined as 28%; in data set [2] (route intraperitoneal), 66%; in data set [3] it was 54%; in the data set on Rattus norvegicus [4] (route intraperitoneal), 14%.

One may read the LD50 as the dose at which mortality reaches 50%. Turning to `COc1ccn(C)c(=O)c1C#N` [RICININE], in the data set on Rattus norvegicus [5], the ED is 6 mg/kg. The LD50 in data set [6] was found to be 80 mg/kg.

For SILYMARIN, the Protection in data set [7] stood at 47%; in data set [2], 50.1%; in data set [8], 47.2%; in the data set with Rattus norvegicus [4], 61%.

Take `CSc1nc(-c2ccccc2)oc(=N)c1C#N`: the Protection came to 30% in data set [1], 26% in data set [2] (route intraperitoneal), 19% in data set [3] and 19% in the data set with Rattus norvegicus [4] (route intraperitoneal).

For the origin of these results see ChEMBL document CHEMBL1128863, “6-Imino-1,3-oxazines: a new class of hepatoprotectants” (Bioorg Med Chem Lett, 1995).
